Assay [1] relates to H4. As to the kind of experiment: Luminescence Cell-Based Dose Response HTS to Identify Activators of 5'UTR Stem-Loop Driven Prion Protein mRNA Translation in H4 Neuroglioblastoma Cells. [Related pubchem assays: 1829 (Project Summary), 1814 (Primary HTS)]. The class given is functional. As to conditions: Homo sapiens.
Assay [2] is described as follows: Luminescence Cell-Based Dose Response HTS to Identify Activators of Luciferase Translation or Activity in H4 […] Cells. [Related pubchem assays: 1829 (Project Summary), 1814 (Primary HTS)]. The class given is functional.
The target in assay [3] is E3 ubiquitin-protein ligase Mdm2/Protein Mdm4 (Homo sapiens, UniProt O15151+Q00987). Description: disruption of Mdm2/MdmX protein binding – luminescence detection, dose response (AID 504593). The assay is classed as functional.
E3 ubiquitin-protein ligase Mdm2/Protein Mdm4, sequence (Q00987 whole entry): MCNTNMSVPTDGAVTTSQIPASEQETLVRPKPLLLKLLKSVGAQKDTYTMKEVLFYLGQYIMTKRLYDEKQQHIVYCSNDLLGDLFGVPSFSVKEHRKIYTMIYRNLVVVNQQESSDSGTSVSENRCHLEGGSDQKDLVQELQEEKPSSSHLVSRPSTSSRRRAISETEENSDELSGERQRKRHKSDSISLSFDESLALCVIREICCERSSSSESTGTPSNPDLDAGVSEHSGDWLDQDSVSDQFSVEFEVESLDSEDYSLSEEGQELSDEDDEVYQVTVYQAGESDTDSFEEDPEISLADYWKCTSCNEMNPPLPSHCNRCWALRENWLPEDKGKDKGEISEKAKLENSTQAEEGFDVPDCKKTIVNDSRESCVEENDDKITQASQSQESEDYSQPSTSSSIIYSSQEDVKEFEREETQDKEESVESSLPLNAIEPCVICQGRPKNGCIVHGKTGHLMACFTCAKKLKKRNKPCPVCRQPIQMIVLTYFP
E3 ubiquitin-protein ligase Mdm2/Protein Mdm4, sequence (O15151 whole entry): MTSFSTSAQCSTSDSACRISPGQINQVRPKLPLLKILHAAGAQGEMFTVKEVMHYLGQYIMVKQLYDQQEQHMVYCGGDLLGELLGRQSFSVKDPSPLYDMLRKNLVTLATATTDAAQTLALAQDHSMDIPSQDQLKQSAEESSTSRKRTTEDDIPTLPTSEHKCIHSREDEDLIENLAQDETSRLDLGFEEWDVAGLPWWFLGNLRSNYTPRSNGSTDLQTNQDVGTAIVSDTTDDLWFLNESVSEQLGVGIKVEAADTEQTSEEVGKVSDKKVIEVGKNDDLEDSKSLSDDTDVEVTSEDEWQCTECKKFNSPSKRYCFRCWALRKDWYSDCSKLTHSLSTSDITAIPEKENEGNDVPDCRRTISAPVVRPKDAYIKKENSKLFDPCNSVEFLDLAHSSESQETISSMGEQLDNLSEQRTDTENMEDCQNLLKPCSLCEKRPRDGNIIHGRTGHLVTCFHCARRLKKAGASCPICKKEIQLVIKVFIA
The nature of assay [4]: Luminescence Cell-Based Dose Confirmation HTS to Identify Activators of 5'UTR Stem-Loop Driven Alpha-Synuclein mRNA Translation in H4 Neuroglioblastoma Cells. [Related pubchem assays: 1829 (Project Summary), 1814 (Primary HTS)]. The class given is functional.
The target of assay [5] is T1, Short transient receptor potential channel 4 (Mus musculus, UniProt Q9QUQ5).
T1 sequence (Q9QUQ5 whole entry): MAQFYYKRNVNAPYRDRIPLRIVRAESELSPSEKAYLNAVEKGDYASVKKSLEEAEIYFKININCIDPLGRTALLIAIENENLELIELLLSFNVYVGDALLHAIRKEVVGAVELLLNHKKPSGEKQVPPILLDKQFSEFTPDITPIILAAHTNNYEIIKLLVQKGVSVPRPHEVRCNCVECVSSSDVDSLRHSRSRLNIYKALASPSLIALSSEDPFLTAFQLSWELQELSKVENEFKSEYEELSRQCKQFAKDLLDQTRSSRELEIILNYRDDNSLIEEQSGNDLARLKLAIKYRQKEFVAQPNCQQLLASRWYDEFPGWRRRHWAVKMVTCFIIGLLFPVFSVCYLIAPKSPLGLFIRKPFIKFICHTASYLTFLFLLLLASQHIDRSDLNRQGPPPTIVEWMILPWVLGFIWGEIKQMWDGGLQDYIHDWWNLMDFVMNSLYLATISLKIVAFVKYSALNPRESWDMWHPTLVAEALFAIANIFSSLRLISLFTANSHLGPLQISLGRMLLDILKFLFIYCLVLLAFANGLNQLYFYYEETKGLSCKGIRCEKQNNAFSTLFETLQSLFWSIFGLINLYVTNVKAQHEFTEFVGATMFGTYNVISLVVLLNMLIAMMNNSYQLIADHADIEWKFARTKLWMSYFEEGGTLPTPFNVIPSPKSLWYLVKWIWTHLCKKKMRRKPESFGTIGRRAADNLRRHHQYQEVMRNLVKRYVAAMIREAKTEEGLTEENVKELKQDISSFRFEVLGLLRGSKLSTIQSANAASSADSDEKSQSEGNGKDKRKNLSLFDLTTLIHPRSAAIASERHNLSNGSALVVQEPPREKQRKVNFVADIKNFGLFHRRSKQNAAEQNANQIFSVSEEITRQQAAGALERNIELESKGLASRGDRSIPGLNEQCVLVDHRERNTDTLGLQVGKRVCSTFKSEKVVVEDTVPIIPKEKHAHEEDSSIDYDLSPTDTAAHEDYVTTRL
As to the kind of experiment: potentiation of DAMGO-evoked TRPC4 calcium signal – cell-based, HEK293 TRPC4/mu-opioid, Fluo-4 calcium, EC20 DAMGO, dose response (AID 434941).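 Further: HEK293 cells coexpressing TRPC4 and mu opioid receptor stimulated by EC20 DAMGO.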 The class given is functional.

Assay [6] has as its target Troponin, cardiac muscle (Homo sapiens, UniProt P19429+P45379+P63316). As to the kind of experiment: Fluorescence-based biochemical high throughput dose response assay for activators of the calcium sensitivity of cardiac Regulated Thin Filaments (RTF). [Related pubchem assays (depositor defined):AID493008, AID493018, AID504382, AID504383]. The class given is protein-complex assay.

Assay [7] is described as follows: Vero E6 cell cytotoxicity, dose response, cytotoxicity control for non-replicating M. tuberculosis project, secondary assay (AID 492998). The class given is functional, VeroE6. The note with it: Vero C1008.
Assay [8] is described as follows: cells. The class given is functional.
Assay [9] can be described thus: DRD fibroblast viability loss – cell-based, non-viral oncogenic, luminescence, dose response (AID 1934). The assay is classed as functional. As to conditions: Homo sapiens.
The subject of assay [10] is BJ. As to the kind of experiment: cells. The assay is classed as functional, cell-based. The note with it: Homo sapiens.
Assay [11] can be described thus: THP-1 cell cytotoxicity, dose response, cytotoxicity control for non-replicating M. tuberculosis project (AID 489025). The class given is functional.
Assay [12] relates to BJ. Description: BJ-TERT-LT-ST fibroblast viability loss – cell-based, RAS-independent, luminescence, dose response (AID 1935).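 Further: BJ fibroblasts immortalized with TERT plus LT and ST oncogenes.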 The class given is functional. The note with it: Homo sapiens.
Assay [13] concerns BJ. As to the kind of experiment: BJ-TERT fibroblast viability loss – cell-based, RAS-independent, luminescence, dose response (AID 1933). The note with it: Homo sapiens. The assay is classed as functional.
In assay [14] the target is T2, Endoribonuclease toxin MazF (Escherichia coli K-12, UniProt P0AE70).
T2 sequence (P0AE70 whole entry): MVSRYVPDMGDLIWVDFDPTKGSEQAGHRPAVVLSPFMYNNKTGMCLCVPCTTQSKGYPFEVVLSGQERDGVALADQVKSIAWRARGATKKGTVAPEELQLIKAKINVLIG
As to the kind of experiment: substrate-only fluorescence increase artefacts – biochemical, single-stranded RNase substrate, counter-screen for MazEF activator project, dose response (AID 588502). The class given is functional.

The target of assay [15] is Mucolipin-3 (Homo sapiens, UniProt Q8TDD5). As to the kind of experiment: Fluorescence counterscreen assay for […] agonists: dose response cell-based high-throughput screening assay to identify agonists of the transient receptor potential channel ML3 (TRPML3). [Related pubchem assays: 1424, 1448 ]. The class given is functional.
Mucolipin-3, sequence (Q8TDD5 whole entry): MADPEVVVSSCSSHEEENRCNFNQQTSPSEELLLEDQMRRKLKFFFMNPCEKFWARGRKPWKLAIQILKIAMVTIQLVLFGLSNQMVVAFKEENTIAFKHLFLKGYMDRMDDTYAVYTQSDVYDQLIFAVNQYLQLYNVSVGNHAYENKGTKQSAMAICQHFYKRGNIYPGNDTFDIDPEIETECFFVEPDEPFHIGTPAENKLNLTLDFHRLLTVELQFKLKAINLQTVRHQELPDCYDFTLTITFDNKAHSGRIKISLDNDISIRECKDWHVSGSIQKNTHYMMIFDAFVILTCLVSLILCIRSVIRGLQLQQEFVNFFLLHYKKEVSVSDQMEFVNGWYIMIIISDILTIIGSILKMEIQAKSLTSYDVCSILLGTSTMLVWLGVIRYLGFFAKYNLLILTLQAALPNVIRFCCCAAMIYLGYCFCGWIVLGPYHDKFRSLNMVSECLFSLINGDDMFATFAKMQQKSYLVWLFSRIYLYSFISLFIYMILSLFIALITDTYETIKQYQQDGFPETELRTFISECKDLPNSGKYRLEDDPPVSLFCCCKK
In assay [16] the target is Ion channel NompC (Danio rerio, UniProt Q7T1G6). As to the kind of experiment: Dose response cell-based high-throughput screening assay for agonists of the transient receptor potential channel N1 (TRPN1). [Related pubchem assays (depositor defined):AID1424, AID1448]. The assay is classed as functional.
Assay [17] deals with Guanyl-specific ribonuclease T1 (Aspergillus oryzae (strain ATCC 42149 / RIB 40), UniProt P00651). Description: inhibition of ribonuclease T1 activity – biochemical, fluorescence polarization, 1536-well, counter-screen for TPT1 inhibitor project, dose response (AID 2167).
Guanyl-specific ribonuclease T1, sequence (P00651 whole entry): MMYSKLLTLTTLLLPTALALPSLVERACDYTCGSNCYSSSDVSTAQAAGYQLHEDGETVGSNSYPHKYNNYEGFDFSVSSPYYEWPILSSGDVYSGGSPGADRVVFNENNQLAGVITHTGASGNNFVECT
For assay [18], the target named is Likely tRNA 2'-phosphotransferase (Candida albicans (strain SC5314 / ATCC MYA-2876) (Yeast), UniProt Q5A7N4). Description: inhibition of Candida TPT1 enzyme activity – biochemical, fluorescence polarization, dose response (AID 2160). Background: Polarisation of emitted light reports the rotation of a fluorescent probe.
Likely tRNA 2'-phosphotransferase, sequence (Q5A7N4 whole entry): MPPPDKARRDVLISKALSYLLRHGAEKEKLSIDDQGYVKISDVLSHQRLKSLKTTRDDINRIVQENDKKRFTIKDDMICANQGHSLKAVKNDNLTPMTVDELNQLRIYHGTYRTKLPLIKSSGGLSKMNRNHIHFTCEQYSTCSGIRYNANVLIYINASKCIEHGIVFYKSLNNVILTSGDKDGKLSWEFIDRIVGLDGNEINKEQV
For assay [19], the target named is T2, Endoribonuclease toxin MazF. Description: activation of MazEF endoribonuclease cleavage – biochemical, fluorescence, single-stranded RNA substrate, uHTS hits, dose response (AID 588481). The class given is functional.
Assay [20] has as its target T3, Kappa-type opioid receptor (Homo sapiens, UniProt P41145). As to the kind of experiment: SAR analysis of small molecule antagonists of the kappa opioid receptor via a luminescent beta-arrestin assay - Set 6. [Related pubchem assays (depositor defined):AID1777, AID1778, AID1785, AID1786, AID1966, AID2133, AID2136, AID2285]. The class given is functional.
Assay [21] addresses Delta-type opioid receptor (Homo sapiens, UniProt P41143). Description: SAR Analysis of Antagonists of the DOR Receptor using an Image-Based Assay - Set 3. [Related pubchem assays (depositor defined):AID1777, AID1785]. The class given is functional.
The target of assay [22] is T3, Kappa-type opioid receptor. Description: SAR analysis of Antagonists of the Kappa Opioid Receptor (KOR) using an Image-Based Assay - Set 3. [Related pubchem assays (depositor defined):AID1777, AID1785]. The class given is functional.
Assay [23] deals with T3, Kappa-type opioid receptor. As to the kind of experiment: SAR analysis of Antagonists of the Kappa Opioid Receptor (KOR) using an Image-Based Assay - Set 4. [Related pubchem assays (depositor defined):AID1777, AID1785]. The class given is functional.
The target of assay [24] is T3, Kappa-type opioid receptor. Description: SAR analysis of small molecule antagonists of the kappa opioid receptor via a luminescent beta-arrestin assay - Set 3. [Related pubchem assays (depositor defined):AID1777, AID1778, AID1785, AID1786, AID1966, AID2133, AID2136, AID2285, AID2495]. The class given is functional.
Assay [25] addresses Mu-type opioid receptor (Homo sapiens, UniProt P35372). Description: SAR Analysis of Antagonists of the MOR Receptor using an Image-Based Assay - Set 3. [Related pubchem assays (depositor defined):AID1777, AID1785, AID1786, AID1966, AID2133, AID2136, AID2284, AID2285, AID2420]. The assay is classed as functional.
In assay [26] the target is Integrin alpha-4 (Homo sapiens, UniProt P13612). As to the kind of experiment: allosteric modulators of alpha4 integrin VLA-4 – cell-based, LIBS antibody binding, flow cytometry, SAR follow-up (AID 488791). The class given is functional. (In general: Flow cytometry measures light scatter and fluorescence of single cells or particles in a stream.)
Integrin alpha-4, sequence (P13612 whole entry): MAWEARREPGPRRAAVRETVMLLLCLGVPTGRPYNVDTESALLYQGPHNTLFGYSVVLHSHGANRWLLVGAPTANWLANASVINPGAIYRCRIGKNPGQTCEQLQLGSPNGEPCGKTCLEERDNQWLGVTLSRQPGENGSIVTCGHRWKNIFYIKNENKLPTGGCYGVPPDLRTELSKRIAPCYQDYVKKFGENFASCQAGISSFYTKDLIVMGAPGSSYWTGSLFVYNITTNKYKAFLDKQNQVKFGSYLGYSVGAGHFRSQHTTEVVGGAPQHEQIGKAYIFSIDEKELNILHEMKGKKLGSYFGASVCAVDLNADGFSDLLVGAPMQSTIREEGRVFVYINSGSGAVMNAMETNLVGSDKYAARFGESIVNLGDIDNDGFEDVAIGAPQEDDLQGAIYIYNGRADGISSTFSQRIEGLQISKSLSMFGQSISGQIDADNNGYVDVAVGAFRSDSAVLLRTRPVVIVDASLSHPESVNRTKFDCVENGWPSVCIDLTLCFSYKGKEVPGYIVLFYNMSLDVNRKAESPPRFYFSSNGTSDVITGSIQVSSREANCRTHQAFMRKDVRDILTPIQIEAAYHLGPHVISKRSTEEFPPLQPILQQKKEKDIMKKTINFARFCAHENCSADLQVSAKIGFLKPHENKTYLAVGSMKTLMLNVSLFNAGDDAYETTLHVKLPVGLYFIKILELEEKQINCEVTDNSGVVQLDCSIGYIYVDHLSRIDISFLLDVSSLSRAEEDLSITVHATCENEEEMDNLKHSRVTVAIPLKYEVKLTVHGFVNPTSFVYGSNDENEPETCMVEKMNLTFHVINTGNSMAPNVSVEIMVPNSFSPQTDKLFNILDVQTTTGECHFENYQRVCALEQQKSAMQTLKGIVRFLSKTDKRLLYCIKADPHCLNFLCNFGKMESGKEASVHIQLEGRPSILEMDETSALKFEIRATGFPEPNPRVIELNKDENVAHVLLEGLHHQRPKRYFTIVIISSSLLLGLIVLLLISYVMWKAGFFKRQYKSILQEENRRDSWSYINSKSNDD
The target of assay [27] is Hexokinase (Trypanosoma brucei, UniProt Q38C41). As to the kind of experiment: Confirmation assay for inhibitors of Trypanosoma brucei hexokinase 1-Analogue-first series. [Related pubchem assays (depositor defined):AID1430, AID1632, AID2516, AID2560, AID2579, AID2600, AID449725, AID492951]. The assay is classed as functional.
In assay [28] the target is Intestinal-type alkaline phosphatase (Homo sapiens, UniProt P09923). Description: human intestinal alkaline phosphatase activators, dose response, biochemical, luminescence, uHTS hits (AID 463120). The assay is classed as functional.
Intestinal-type alkaline phosphatase, sequence (P09923 whole entry): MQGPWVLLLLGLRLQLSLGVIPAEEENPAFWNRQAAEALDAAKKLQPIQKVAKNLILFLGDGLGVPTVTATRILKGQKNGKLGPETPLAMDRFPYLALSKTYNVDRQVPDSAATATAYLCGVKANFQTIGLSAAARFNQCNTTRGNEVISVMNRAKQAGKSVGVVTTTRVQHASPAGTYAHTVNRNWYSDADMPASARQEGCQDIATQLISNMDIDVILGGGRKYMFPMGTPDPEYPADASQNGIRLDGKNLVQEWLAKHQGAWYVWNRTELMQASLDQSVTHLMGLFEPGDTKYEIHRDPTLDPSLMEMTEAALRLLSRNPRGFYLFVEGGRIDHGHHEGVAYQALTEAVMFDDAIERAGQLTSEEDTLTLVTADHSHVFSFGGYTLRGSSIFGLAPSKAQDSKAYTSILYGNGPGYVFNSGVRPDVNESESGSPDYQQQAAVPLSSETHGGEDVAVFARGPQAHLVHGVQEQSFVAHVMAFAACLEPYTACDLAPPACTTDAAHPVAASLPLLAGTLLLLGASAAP
The target in assay [29] is Alkaline phosphatase, placental type (Homo sapiens, UniProt P05187). As to the kind of experiment: human placental alkaline phosphatase inhibition – biochemical, luminescence, confirmation (AID 1512). The assay is classed as functional.
Alkaline phosphatase, placental type, sequence (P05187 whole entry): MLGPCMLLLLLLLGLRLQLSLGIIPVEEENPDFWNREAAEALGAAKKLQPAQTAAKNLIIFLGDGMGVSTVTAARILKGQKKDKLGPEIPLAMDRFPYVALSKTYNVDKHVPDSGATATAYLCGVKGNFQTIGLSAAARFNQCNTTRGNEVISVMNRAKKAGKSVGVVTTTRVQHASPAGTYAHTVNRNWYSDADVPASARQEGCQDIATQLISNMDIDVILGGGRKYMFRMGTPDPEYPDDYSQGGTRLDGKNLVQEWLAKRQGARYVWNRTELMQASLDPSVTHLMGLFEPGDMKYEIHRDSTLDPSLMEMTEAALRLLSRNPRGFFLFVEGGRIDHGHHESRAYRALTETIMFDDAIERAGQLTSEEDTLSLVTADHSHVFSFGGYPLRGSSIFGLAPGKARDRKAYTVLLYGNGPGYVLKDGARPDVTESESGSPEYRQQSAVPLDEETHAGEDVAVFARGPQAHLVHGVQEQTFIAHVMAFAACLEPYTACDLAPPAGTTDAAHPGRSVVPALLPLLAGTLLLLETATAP
In assay [30] the target is T4, Alkaline phosphatase, tissue-nonspecific isozyme (Homo sapiens, UniProt P05186).
T4 sequence (P05186 whole entry): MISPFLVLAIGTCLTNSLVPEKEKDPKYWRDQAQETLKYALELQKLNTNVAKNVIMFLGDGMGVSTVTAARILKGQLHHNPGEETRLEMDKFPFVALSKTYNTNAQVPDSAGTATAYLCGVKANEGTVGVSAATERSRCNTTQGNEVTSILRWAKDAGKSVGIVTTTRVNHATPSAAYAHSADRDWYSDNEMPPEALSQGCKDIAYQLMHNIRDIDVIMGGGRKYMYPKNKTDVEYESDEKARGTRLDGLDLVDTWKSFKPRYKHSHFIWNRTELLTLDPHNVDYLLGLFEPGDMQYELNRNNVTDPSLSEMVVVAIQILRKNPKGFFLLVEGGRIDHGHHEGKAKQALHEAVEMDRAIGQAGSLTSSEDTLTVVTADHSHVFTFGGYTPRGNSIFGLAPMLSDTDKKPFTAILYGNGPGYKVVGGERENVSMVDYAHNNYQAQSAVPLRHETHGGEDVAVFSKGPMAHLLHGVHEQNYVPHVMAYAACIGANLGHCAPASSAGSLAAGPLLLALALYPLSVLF
Description: potency against alkaline phosphatase TNAP – biochemical, luminescent, dose response, SAR follow-up (AID 1056).

Assay [31] deals with Glyceraldehyde-3-phosphate dehydrogenase (Homo sapiens, UniProt P04406).

Calls of active or inactive are those of the source.

T3 sequence (P41145 whole entry): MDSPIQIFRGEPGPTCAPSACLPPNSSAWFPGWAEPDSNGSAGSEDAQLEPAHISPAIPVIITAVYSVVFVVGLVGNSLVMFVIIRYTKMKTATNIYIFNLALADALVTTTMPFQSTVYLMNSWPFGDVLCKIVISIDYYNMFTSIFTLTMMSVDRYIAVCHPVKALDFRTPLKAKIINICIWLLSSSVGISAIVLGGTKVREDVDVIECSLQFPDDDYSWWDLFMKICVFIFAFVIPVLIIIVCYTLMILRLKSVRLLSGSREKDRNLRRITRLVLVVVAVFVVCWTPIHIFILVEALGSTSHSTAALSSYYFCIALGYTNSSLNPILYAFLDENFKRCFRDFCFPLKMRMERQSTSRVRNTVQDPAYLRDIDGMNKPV
Delta-type opioid receptor, sequence (P41143 whole entry): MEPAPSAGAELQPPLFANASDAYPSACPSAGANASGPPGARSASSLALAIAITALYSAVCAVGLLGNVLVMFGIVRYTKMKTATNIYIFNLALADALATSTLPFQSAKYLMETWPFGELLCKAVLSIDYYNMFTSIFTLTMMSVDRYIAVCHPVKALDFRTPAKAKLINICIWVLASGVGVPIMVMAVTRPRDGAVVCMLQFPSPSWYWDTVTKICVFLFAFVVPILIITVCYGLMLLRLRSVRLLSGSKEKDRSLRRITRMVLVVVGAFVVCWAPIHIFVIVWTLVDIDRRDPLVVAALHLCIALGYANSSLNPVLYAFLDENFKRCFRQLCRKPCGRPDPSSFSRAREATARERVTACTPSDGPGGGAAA

Consider `CC1(C)C(=O)Nc2ccccc2N1C(=O)Cn1ncc(Cl)c(Cl)c1=O`, for which the EC50 (as a rule, the concentration giving half of the maximal effect) in [1] is > 120 µM (not active); in assay [2] it was > 120 µM (not active); in assay [4], > 60 µM (not active). Moreover, the IC50 (in general, the midpoint of a concentration-inhibition curve) in [3] was 5.11 µM (active).
Consider `Cc1cc(-c2ccc(C)c(S(=O)(=O)N3CCN(c4ccccn4)CC3)c2)on1`, for which the EC50 in assay [5] is 4.22 µM (active).
Consider `Cc1ccc(-c2ccc(OC(=O)c3ccc(=O)[nH]c3)c(C)c2)cc1`, for which the EC50 in [6] is > 71.5 µM (inactive).
`COC(=O)c1ccc(C(=O)NC2CCCc3c2cnn3-c2cc(F)cc(F)c2)nc1` (stereo unspecified): the CC50 – broadly, the concentration at which the toxic effect on the cells reaches its halfway point – in assay [7] was 10.8 µM (active); in assay [11], 10.7 µM (active). Moreover, the IC50 in [8] is 2.22 µM (active). Besides, the EC50 is 40 µM (active) in [9], 24.6 µM (active) in assay [10], 17.3 µM (active) in assay [12] and 17.1 µM (active) in assay [13].
Consider `CC(=O)N1C(=O)C(=C2C=C(C)OC(C)=C2)c2ccccc21`, for which the EC50 in assay [14] was > 99 µM (inactive); in assay [15], > 29.9 µM (not active); in [16], 22 µM (inactive); in assay [19], > 99 µM (inactive). For the same molecule, the IC50 in [17] was 2.13 µM (active); in assay [18] it was > 2.06 µM (active).
With `O=C(Cn1c(=O)c2cccn2c2cccnc21)NCCCN1CCN(c2ccccc2)CC1`, the IC50 is > 20 µM (inactive) in assay [20]; > 32 µM (inactive) in assay [21]; 12.7 µM (inactive) in assay [22]; > 32 µM (inactive) in assay [23]; 1.17 µM (active) in assay [24]; > 32 µM (inactive) in assay [25].
For `c1ccc2c(-c3ccc(OCCN4CCCC4)cc3)c(-c3ccsc3)sc2c1`, the EC50 in [26] was > 49.4 µM (inactive).
With `CCCCCC(=O)Nc1cc(Cl)ccc1C(=O)O`, the IC50 in assay [27] was > 25 µM (inactive).
Consider `O=C(N/N=C/c1ccc2cccnc2c1)c1nc(O)c2ccccc2n1`, for which the EC50 in [28] is 7.78 µM (active).
On to `NNC(=O)c1cc(-c2ccc(Cl)cc2Cl)n[nH]1`, for which the IC50 in [29] is > 100 µM (inactive); in assay [30] it was 0.0684 µM (active); in assay [31], > 100 µM (not active).

The values above are taken from ChEMBL document CHEMBL1201862, “PubChem BioAssay data set” (2004).
